{"source": "patent US7553929B2", "about": "“Cell permeable peptides for inhibition of inflammatory reactions and methods of use” (Vanderbilt University, priority 1994, dated 2009)", "key": {"NIH 3T3 cells [1]": {"system": "NIH 3T3 cells", "experiment": "[3H]thymidine incorporation (mitogenic response) of NIH 3T3 cells", "type": "cell-based", "settings": "serum-starved NIH 3T3 cells, 16 h + 4 h", "procedure": "A 26-residue hybrid peptide (referred to as SA, listed herein as SEQ ID NO:3) was designed and synthesized. […] Thus, the SA peptide differs from the SM peptide only in its 7-residue carboxyl terminal “cargo” region. A functional assay was performed in which SA peptide was able to induce a mitogenic response of NIH 3T3 cells measured by [^3H]thymidine incorporation in a manner similar to aFGF bearing, the same NLS. ^18\nIn this functional assay, confluent 3T3 cells grown initially in DMEM containing 10% FBS were transferred to a low serum medium (DMEM containing 0.5% FBS) for 2 days. The test peptides, either SA peptide, SAα pep-tide, ANL peptide, or SM peptide, or aFGF, were added to a fresh low serum medium at the indicated concentrations at 37° C. After 16 hours, [^3H]thymidine was added and 4 hours later, the cells were washed with PBS, treated with trichloroacetic acid, solubilized with 0.15 M NaOH, and the radioactivity was determined in a liquid scintillation counter.\nBars represent the mean±S.E.M. of at least three independent experiments done in triplicate and calculated as multiplicity of counts in the tested sample over the control sample. SA peptide within the concentration range used (0 to 46 μM) was not cytotoxic as determined by staining with fluorescein diacetate/ethidium bromide. ^20"}, "NIH 3T3 cells [2]": {"system": "NIH 3T3 cells", "experiment": "DNA synthesis by flow cytometric analysis in serum-starved NIH 3T3 cells", "type": "cell-based", "settings": "15 ng ml^−1, 20 h", "procedure": "To further confirm the mitogenic activity of the SA peptide, its effect on DNA synthesis was examined. Serum-starved NIH 3T3 cells were treated with SA peptide, fixed, and the DNA concentration was determined by standard flow cytometric analysis. Specifically, confluent NIH 3T3 cells (1.3×10^6 cells) were serum-starved in DMEM containing 0.5% FBS for 2 days. The cells were untreated (control) or treated with SA peptide or aFGF for 20 h, harvested, spun down, and washed with serum-free PBS, three times. The cells were fixed with methanol precooled to −20° C. for DNA analysis carried out by the Flow Cytometry Research Service of Vanderbilt University. The data were the mean ±S.E.M. of six measurements and were analyzed for statistical significance by analysis of variance."}, "NIH 3T3 cells [3]": {"system": "NIH 3T3 cells", "settings": "aFGF binding to FGF receptors on NIH 3T3 cells; cited from earlier work"}}}
{"substance": "aFGF: acidic fibroblast growth factor", "values": [{"measurement": "Stimulation of [3H]thymidine incorporation over control", "setting": "NIH 3T3 cells [1]", "value": "~8", "unit": "fold"}, {"measurement": "Diploid % S Phase", "setting": "NIH 3T3 cells [2]", "value": "27.8 ± 2.3 (P < 0.05) %"}, {"measurement": "Tyrosine phosphorylation of intracellular proteins", "setting": "NIH 3T3 cells [3]", "value": "induces the tyrosine phosphorylation"}]}
